The values below come from patent US10231907B2, “Compositions for improving the health and appearance of skin” (Algenist Holdings, Inc., priority 2006, dated 2019).

For assay [1], the system named is MatTek EpiDerm® skin model (normal human-derived epidermal keratinocytes). Put plainly: TT dimer-UV exposure assay in MatTek EpiDerm skin model. The settings on record: 1 mM, UVB 300 mJ/cm^2, mean ± SD. The assay is classed as cell-based. Here is the method:
TT dimer-UV exposure assay: The testing system used for this assay was the MatTek EpiDerm®, a skin model that consists of normal human-derived epidermal keratinocytes cultured to form a multilayered, highly differentiated model of the human epidermis. For this study, the tissues were treated topically overnight with either test materials, 1 mM Trolox (positive control), or left untreated (negative control). On the following day, the tissues were exposed to UVB (300 mJ/cm^2). Following the exposures the DNA was extracted from the EpiDerm tissues and assayed for thymine dimer content. Samples of the DNA were immobilized on a solid membrane support and incubated with an antibody that recognizes thymidine dimers in double stranded DNA. The primary antibody was detected using a secondary antibody conjugated to an alkaline phosphatase enzyme followed by the addition of a substrate that the alkaline phosphatase enzyme uses to generate a chemiluminescent signal. The light generated by this reaction was captured using film with the intensity of the light signal being proportional to the amount of the thymine dimers present in the sample. Test material BM was Porphyridium sp. biomass that had been homogenized with a Microfluidizer® twice and then lyophilized. […] Extracted DNA was quantified via a fluorometric assay. […]

The test system of assay [2] is Fibroblasts. As to the kind of experiment: Procollagen synthesis (type I C-peptide ELISA) in fibroblast culture. The assay is classed as cell-based, human. The settings on record: 4 mM, 48 hours, mean ± SD. From the text:
A fibroblast cell culture model was used to assess the ability of the polysaccharide from Porphyridium to exert an effect on procollagen synthesis. Fibroblasts are the main source of the extracelluar matrix peptides, including the structural protein collagen. Procollagen is a large peptide synthesized by fibroblasts in the dermal layer of the skin and is the precursor for collagen. As the peptide is processed to form a mature collagen protein, the propeptide portion is cleaved off (type I C-peptide). Both the mature collagen protein and the type I C-peptide fragment are then released into the extracellular environment. As collagen is synthesized the type I C-peptide fragment accumulates into the tissue culture medium. Since there is a 1:1 stoichiometric ratio between the two parts of the procollagen peptide, assaying for type I C-peptide reflects the amount of collagen synthesized. […]
A series of type I C-peptide standards was prepared ranging from 0 ng/ml to 640 ng/ml. […] After the incubation 100 μl of stop solution (1 N sulfuric acid) was added to each well and the plate was read using a microplate reader at 450 nm.
To quantify the amount of procollagen present, a standard curve was generated using known concentrations of procollagen. […] Absorbance values for the test and positive control samples was used to determine the amount of procollagen present. […]

Assay [3] has as its system Porphyridium sp. and Porphyridium cruentum. As to the kind of experiment: Antibiotic sensitivity on agar plates. The assay is classed as cell-based. The note with it: 14 days. Here is the method:
Approximately […] cells (300 ul of 1.5×10^5 cells per ml) of Porphyridium sp. and Porphyridium cruentum cultures in liquid ATCC 1495 ASW media were plated onto ATCC 1495 ASW agar plates (1.5% agar). The plates contained varying amounts of zeocin, sulfometuron, hygromycin and spectinomycin. The plates were put under constant artificial fluorescent light of approximately 480 lux. After 14 days, plates were checked for growth.

Assay [4] relates to hyaluronidase. As to the kind of experiment: Anti-hyaluronidase assay (bHA-coated 96-well plate). The assay is classed as biochemical. The settings on record: 0.1%. As for the experimental part: Biotinylated hyaluronic acid (bHA) was covalently attached to the wells of a 96-well plate. Samples containing hyaluronidase and various test materials were then added to the wells. The hyaluronidase degrades the bound hyaluronic acid, resulting in a decrease in the amount of biotin covalently linked to the well plate. At the end of the incubation period the reaction was stopped and the well plate was washed to remove the hyaluronidase. The remaining bHA was detected using an avidin bound peroxidase enzyme. When an appropriate substrate is added, the peroxidase enzyme generated a color signal in proportion to the amount of bHA. The color signal was measured spectrophotometrically, and was inversely proportional to the amount of hyaluronidase activity in the sample. […] Also see Frost, G. I., Stern, R. A Microtiter-Based Assay for Hyaluronidase Activity Not Requiring Specialized Reagents. Analytical Biochemistry 251, 263-269: 1997. […]
During the 30 minute incubation, an avidin/biotin-peroxidase complex was prepared in 10.5 ml of PBS containing 0.1% Tween 20 using an ABC kit. […] The plate was incubated in the dark for 10-20 minutes and then read at 460 nm using a plate reader. The substrate solution was also added to three wells that were not treated with test materials or the avidin/biotin-peroxidase solution and were used as a blank for the absorbance measurements. […]

Regarding `Cc1c(C)c2c(c(C)c1O)CCC(C)(C(=O)O)O2` (stereo not drawn) [Trolox], the “Optical Density (thymidine dimer)” value in assay [1] came to 107 ± 1 optical density units.

Regarding `CCCC(=O)[O-].[Na+]` [Na Butyrate, sodium butyrate], the “Type I C-Peptide” value in assay [2] stood at 1425 ± 81 ng/mL.

For `CN[C@@H]1[C@H](O)[C@H](NC)[C@H]2O[C@@]3(O)C(=O)C[C@@H](C)O[C@H]3O[C@@H]2[C@H]1O` [Specinomycin], the Growth result in assay [3] (100.0 ug/ml), in assay [3] (250.0 ug/ml) and in assay [3] (750.0 ug/ml) was “+ + + +” in each case.

In the case of heparin, the “Percent Inhibition” value in assay [4] was 74%.
